“Also recorded” adds a separate entry of the source.
Tests used:
[1] = disappearance of melittin from culture medium / uptake by cells; type: in vitro ADME
Text: This means, in essence, that the effect of melittin (Seq. ID NO:1) on the virus is to attack the virus before it is released from an infected cell although it is possible that a reduction in virus numbers may be possible during and immediately after the addition of melittin to a cell culture or otherwise. […] At this point in time, melittin is absent from the culture. […] This observation excludes any effect in the experiments to be explained by a direct effect of melittin on "cell free" virus, that is, virus released into the supernatant.
These characteristics appear to be due to the specific structure of the melittin amphiphilic helix. […] In this regard, treatment was at cultivation start, and measurement of infectivity was seven days post treatment. As was discussed earlier, maximum virus concentration in cultures of this type is not achieved for five days after cultivation. As should be understood and the conclusions which the inventors have drawn from same is that if the reduced viral infectivity seven days post treatment were only due to direct effects of melittin on the virus, then in that event, the melittin or an active fragment would have to be present as late as five days post treatment. […] Moreover, and if the reduction and supernatant infectivity was partly due to reduced virus production as opposed to incorrect virus assembly or destruction of newly synthesized virion, then, in that event, this should be reflected by reduced amounts of viral proteins within the cells and/or in their supernatants of the melittin treated cultures. To determine whether this hypothesis is correct the inventors chose the P24 marker as a marker for viral protein production. […] However, following fourteen hours of incubation with melittin, there is a marked reduction of P24 within the cells as well as in the supernatant (down to 60%).

HIV = HIV release from chronically infected cells (Biomek 1000); type: cell-based; conditions: FIGS. 6-19
Text: A series of experiments and which are illustrated graphically in FIGS. 6 through 34, respectively, were designed to detect two extremes. In particular the tests were designed to detect the inhibition of viral release and/or the release of virus which has a reduced ability to infect other cells. This reduced ability to infect other cells is represented, for example, by glycosylation inhibitors, the direct effect on virus release is represented by acylation inhibitors, RT inhibitors and melittin (Seq. ID NO:1). The most important feature of this experimental design, however, is to detect the toxicity of melittin. The present experiments were carried out on both the astrocytoma cell line LC5-HIV (cloned infected cells) and T-lymphocytoma cell line KE37-1/IIIβ (cloned infected cells with HTLV-IIIβ). In both cases the results were essentially identical.
In the present series of experiments HIV release was tested by a fully automated laboratory robot system and which is manufactured by Beckman Instruments as the Biomek 1000. This system performed the following steps. First, chronically infected cells (cloned) are plated in microtiter plates and grown for a period of seven days. They are then challenged by melittin (Seq. ID NO:1) during this period either for the final day or throughout the period as shown in the figures. The number of living cells are quantified by MTT, that is by a metabolic (dehydrogenase) test. The MTT test is automatically performed. The toxic effect is detected at the time of the experiment and not in a separate control experiment. Furthermore, the supernatant, and which contains released virus cells from the period of time which elapsed from the last wash, and which may vary from 24 hours to 7 days, is collected from the culture, and an aliquot is saved for virus quantification by employing antigen or viral enzyme reverse transcriptase (RT). Furthermore, an aliquot is added to a culture of uninfected cells in microtiter plates for subsequent measurement of the ability of the virus cells to reinfect these uninfected cells. In this regard, the number of infected cells is automatically quantified by an immunoperoxidase staining technique. The test results, as shown, are expressed in terms of toxicity of the melittin (MTT test); the release of HIV from the primary culture (RT test); and the ability of the released virus to infect previously uninfected cells.

[2] = blood serum levels of melittin after injection; type: in vivo, cats
Description: During the experiment it was determined that detectable blood serum levels of melittin (Seq. ID NO:1) of about 5 ng/ml could be detected following an injection of melittin equal to […] a few minutes after injection. […] In vitro data has shown that melittin, after this time interval, is found within the cells where it can be detected in tact for more than 48 hours. The LD50 (lethal dose where 50% of the animals perish) for melittin is not known for cats. In the present experiment, both cats M and G were treated twice weekly with subcutaneous injections over a period of eight weeks. During the first three weeks, each cat received increasing dosages of melittin (Seq. ID NO:1) beginning with a 50 mg/kg bodyweight injection, followed by injections of 100 mg/kg, and then escalating to 150, 225, 375 and 500 mg/kg at the sixth injection. Upon reaching this level, the melittin was administered in a constant dosage of 500 mg/kg twice weekly, for the remaining five weeks. […] The quantitative effect of melittin on FIV replication was determined quantitatively by utilizing FIV-PCR employing nested primers from the gag region. Quantification was based upon the determination of amplified product in identical samples which have been amplified after different cycle times. This is best seen by reference to FIG. 47A. Furthermore, each of the cats were clinically investigated in detail. […]

Substance: Gly-Ile-Gly-Ala-Val-Leu-Lys-Val-Leu-Thr-Thr-Gly-Leu-Pro-Ala-Leu-Ile-Ser-Trp-Ile-Lys-Arg-Lys-Arg-Gln-Gln-Amide [melittin]
- absorption by the cell ([1]; after introduction to the culture): absorbed by the cell within hours after introduction to the culture
- half-life of melittin ([1]; cell culture): 19 h
- melittin in the medium ([1]; two hours after addition to the culture): not measurable in the medium two hours after addition to the culture
- inhibition of viral cell (HIV) release from infected cells, in words (HIV): inhibition of viral cell release from infected cells; also recorded: inhibited HIV release
- disappearance from the serum ([2]; in vivo): disappears quickly from the serum
- detectable blood serum levels ([2]; injection equal to 200 mg/kg, a few minutes after injection): about 5 ng/ml

Source: patent US5770688A, “Method and composition for the treatment of mammalian HIV infection” (GSF-Forschungszentrum fur Umwelt und Gesundheit GmbH, priority 1989, dated 1998)
